How the values were obtained:
Oryza sativa [1] = assay: Relieving activity against bensulfuron-methyl induced injury to Oryza sativa (rice) assessed as growth rate at 0.1 uM (Rbv = 46 to 53%); format: functional
[2] = Hydrophobicity, log K of the compound; format: physicochemical; conditions: octanol/water
Oryza sativa [3] = assay: Effect on Oryza sativa (rice) assessed as growth rate at 0.1 uM relative to control; format: organism-based; conditions: in vivo
Oryza sativa [4] = assay: Safener indices, ratio of compound effect of Oryza sativa (rice) growth rate to relieving activity against bensulfuron-methyl induced injury to Oryza sativa growth rate at 10 uM
Oryza sativa [5] = assay: Effect on Oryza sativa (rice) assessed as growth rate at 10 uM relative to control; format: organism-based; conditions: in vivo
Oryza sativa [6] = assay: Relieving activity against bensulfuron-methyl induced injury to Oryza sativa (rice) assessed as growth rate at 10 uM (Rbv = 46 to 53%); format: functional
Oryza sativa [7] = assay: Safener indices, ratio of compound effect of Oryza sativa (rice) growth rate to relieving activity against bensulfuron-methyl induced injury to Oryza sativa growth rate at 1 uM
Oryza sativa [8] = assay: Relieving activity against bensulfuron-methyl induced injury to Oryza sativa (rice) assessed as growth rate at 1 uM (Rbv = 46 to 53%); format: functional
Oryza sativa [9] = assay: Safener indices, ratio of compound effect of Oryza sativa (rice) growth rate to relieving activity against bensulfuron-methyl induced injury to Oryza sativa growth rate at 0.1 uM
Oryza sativa [10] = assay: Effect on Oryza sativa (rice) assessed as growth rate at 1 uM relative to control; format: organism-based; conditions: in vivo

Row | log K [2] | Activity (Oryza sativa [3]) [%] | Activity (Oryza sativa [5]) [%] | Activity (Oryza sativa [10]) [%] | Compound | Activity (Oryza sativa [1]) [%] | Ratio (Oryza sativa [4]) | Activity (Oryza sativa [6]) [%] | Ratio (Oryza sativa [7]) | Activity (Oryza sativa [8]) [%] | Ratio (Oryza sativa [9])
1 | 0.452 | 99 | 99 | 99 | C[C@H](NC(=O)Nc1cc(F)cc(F)c1)c1ccccc1 | 64 | 85 | 93 | 58 | 79 | 30
2 | 0.646 | 100 | 99 | 100 | C[C@@H](NC(=O)Nc1cccc(Cl)c1Cl)c1ccccc1 | 59 | 78 | 89 | 58 | 80 | 14
3 | 0.646 | 100 | 101 | 100 | C[C@H](NC(=O)Nc1cccc(Cl)c1Cl)c1ccccc1 | 89 | 96 | 98 | 91 | 96 | 76
4 | 0.61 | 98 | 93 | 96 | C[C@@H](NC(=O)Nc1ccc(Cl)c(Cl)c1)c1ccccc1 | 57 | 56 | 77 | 34 | 66 | 15
5 | 0.61 | 98 | 99 | 97 | C[C@H](NC(=O)Nc1ccc(Cl)c(Cl)c1)c1ccccc1 | 70 | 81 | 90 | 57 | 78 | 39
6 | 0.624 | 99 | 98 | 99 | C[C@@H](NC(=O)Nc1cccc(C(F)(F)F)c1F)c1ccccc1 | 68 | 92 | 96 | 79 | 90 | 33
7 | 0.624 | 99 | 100 | 98 | C[C@H](NC(=O)Nc1cccc(C(F)(F)F)c1F)c1ccccc1 | 76 | 96 | 98 | 84 | 92 | 51
8 | 0.64 | 87 | 60 | 70 | C[C@@H](NC(=O)Nc1cc(C(F)(F)F)ccc1F)c1ccccc1 | 53 | 40 | 59 | 28 | 55 | 13
9 | 0.64 | 98 | 87 | 89 | C[C@H](NC(=O)Nc1cc(C(F)(F)F)ccc1F)c1ccccc1 | 64 | 70 | 84 | 59 | 79 | 26
10 | 0.356 | 100 | 94 | 100 | Cc1cc(F)ccc1NC(=O)N[C@H](C)c1ccccc1 | 54 | 48 | 74 | 9 | 57 | 3
11 | 0.356 | 99 | 96 | 98 | Cc1cc(F)ccc1NC(=O)N[C@@H](C)c1ccccc1 | 56 | 62 | 81 | 40 | 71 | 9
12 | 0.459 | 98 | 99 | 99 | Cc1ccc(NC(=O)N[C@H](C)c2ccccc2)c(F)c1 | 57 | 78 | 89 | 55 | 79 | 11
13 | 0.459 | 100 | 100 | 99 | Cc1ccc(NC(=O)N[C@@H](C)c2ccccc2)c(F)c1 | 77 | 89 | 95 | 72 | 87 | 53
14 | 0.688 | 101 | 100 | 99 | C[C@@H](NC(=O)Nc1ccc(Cl)cc1Cl)c1ccccc1 | 61 | 47 | 75 | 29 | 65 | 20
15 | 0.688 | 100 | 99 | 100 | C[C@H](NC(=O)Nc1ccc(Cl)cc1Cl)c1ccccc1 | 68 | 73 | 87 | 59 | 80 | 33
16 | 0.704 | 99 | 101 | 100 | C[C@@H](NC(=O)Nc1cc(Cl)ccc1Cl)c1ccccc1 | 64 | 52 | 77 | 37 | 68 | 26
17 | 0.704 | 100 | 100 | 99 | C[C@H](NC(=O)Nc1cc(Cl)ccc1Cl)c1ccccc1 | 79 | 82 | 91 | 69 | 85 | 56
18 | 0.326 | 100 | 100 | 99 | C[C@@H](NC(=O)Nc1c(Cl)cccc1Cl)c1ccccc1 | 57 | 21 | 61 | 19 | 61 | 12
19 | 0.326 | 100 | 99 | 99 | C[C@H](NC(=O)Nc1c(Cl)cccc1Cl)c1ccccc1 | 62 | 47 | 74 | 36 | 69 | 21
20 | 0.703 | 99 | 99 | 99 | C[C@@H](NC(=O)Nc1cc(Cl)cc(Cl)c1)c1ccccc1 | 58 | 37 | 69 | 25 | 63 | 14
21 | 0.703 | 99 | 99 | 100 | C[C@H](NC(=O)Nc1cc(Cl)cc(Cl)c1)c1ccccc1 | 74 | 76 | 88 | 59 | 80 | 46

Source: ChEMBL document CHEMBL3045406, “Enantioselective Relieving Activity of α-Methylbenzylphenylureas toward Bensulfuron-methyl Injury to Rice (Oryza sativa)” (Biosci Biotechnol Biochem, 1999)
